Laboratory results from ChEMBL document CHEMBL1201862, “PubChem BioAssay data set” (2004).
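Each compound was tested at five concentrations against cells in 96-well plates for 48 hours. Abbreviation: GI50, concentration required for 50% inhibition of growth.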 Active and inactive are the calls of the source. Cut-off read from the data, not from the text of the source: active = GI50 up to about 1.1 µM and inactive = higher.

What was measured:
Test in all cases: NCI tumour cell line growth inhibition, 48 h
K562 = system: K562
OVCAR-4 = system: OVCAR-4
UO-31 = system: UO-31
SK-MEL-2 = system: SK-MEL-2
IGROV-1 = system: IGROV-1
SF-268 = system: SF-268
EKVX = system: EKVX
SK-MEL-5 = system: SK-MEL-5
SW-620 = system: SW-620
HT-29 = system: HT-29
OVCAR-8 = system: OVCAR-8
CCRF-CEM = system: CCRF-CEM
OVCAR-3 = system: OVCAR-3
M14 = system: M14
HCT-116 = system: HCT-116
SNB-75 = system: SNB-75

Measured: GI50

N#Cc1ccc(Cc2ccccn2)cc1Cl
inactive: K562 > 100 µM | OVCAR-4 > 100 µM | UO-31 > 100 µM | SK-MEL-2 > 100 µM | IGROV-1 > 100 µM | SF-268 > 100 µM | EKVX > 100 µM | SK-MEL-5 > 100 µM | SW-620 > 100 µM | HT-29 > 100 µM | OVCAR-8 > 100 µM | CCRF-CEM > 100 µM

CCOC(=O)C12CCCC1(O)N(NC(N)=O)C(C)=C2C(=O)OC (stereo not drawn)
inactive: K562 > 100 µM | OVCAR-4 > 100 µM | UO-31 > 100 µM | OVCAR-3 > 100 µM | SK-MEL-2 > 100 µM | IGROV-1 > 100 µM | SF-268 > 100 µM | M14 > 100 µM | HCT-116 > 100 µM | EKVX > 100 µM | SW-620 > 100 µM | HT-29 > 100 µM | OVCAR-8 > 100 µM | CCRF-CEM > 100 µM

CCOC(=O)NC/C=C/COC1CCCCO1 (stereo not drawn)
inactive: K562 > 100 µM | OVCAR-4 > 100 µM | UO-31 > 100 µM | SK-MEL-2 > 100 µM | IGROV-1 > 100 µM | SF-268 > 100 µM | M14 > 100 µM | HCT-116 > 100 µM | SK-MEL-5 > 100 µM | SW-620 > 100 µM | OVCAR-8 > 100 µM | CCRF-CEM > 100 µM | SNB-75 > 100 µM

COC(=O)c1ccc(C=C(C#N)C#N)cc1
inactive: K562 23.2 µM | OVCAR-4 20.6 µM | OVCAR-3 29.4 µM | SK-MEL-2 18.4 µM | IGROV-1 28.4 µM | SF-268 23 µM | M14 16.5 µM | HCT-116 17.1 µM | EKVX 33.8 µM | SK-MEL-5 17.9 µM | SW-620 21.3 µM | HT-29 33.4 µM | OVCAR-8 21.9 µM | CCRF-CEM 21.5 µM | SNB-75 27.4 µM

O=C1[C@@H]2C3c4ccccc4C([C@@H]2C(=O)N1c1ccccc1)S3(=O)=O
inactive: K562 61.4 µM | UO-31 > 100 µM | OVCAR-3 > 100 µM | SK-MEL-2 > 100 µM | IGROV-1 > 100 µM | SF-268 38.9 µM | M14 > 100 µM | HCT-116 > 100 µM | EKVX > 100 µM | SK-MEL-5 > 100 µM | SW-620 51.4 µM | HT-29 > 100 µM | OVCAR-8 > 100 µM | CCRF-CEM 32.1 µM | SNB-75 65.3 µM

CC1=CCC23C(C1)OC(Br)(C=CC2(C)O)C3(C)C (stereo not drawn)
inactive: K562 > 100 µM | OVCAR-4 > 100 µM | SK-MEL-2 > 100 µM | IGROV-1 > 100 µM | SF-268 > 100 µM | HCT-116 > 100 µM | EKVX > 100 µM | SK-MEL-5 > 100 µM | SW-620 > 100 µM | HT-29 > 100 µM | OVCAR-8 > 100 µM | CCRF-CEM > 100 µM | SNB-75 > 100 µM

N#Cc1c(-c2ccccc2)c(-c2ccccc2)cc2c(=O)c3ccc(Cl)cc3[nH]c12
inactive: UO-31 > 100 µM | OVCAR-3 > 100 µM | SK-MEL-2 > 100 µM | IGROV-1 > 100 µM | SF-268 > 100 µM | HCT-116 > 100 µM | EKVX > 100 µM | SW-620 > 100 µM | HT-29 > 100 µM | OVCAR-8 > 100 µM | CCRF-CEM > 100 µM | SNB-75 > 100 µM

O=C1CC[C@H](NC(=O)Cc2ccccc2)C(=O)N1 [ANTINEOPLASTON A10]
inactive: K562 > 1250 µM | OVCAR-4 > 1250 µM | UO-31 > 1250 µM | SK-MEL-2 > 1250 µM | IGROV-1 > 1250 µM | SF-268 > 1250 µM | M14 > 1250 µM | HCT-116 > 1250 µM | EKVX > 1250 µM | SW-620 > 1250 µM | HT-29 > 1250 µM | OVCAR-8 > 1250 µM | CCRF-CEM > 1250 µM | SNB-75 877 µM
